Test results: article PMC8458281, “Computational modeling and experimental validation of the EPI-X4/CXCR4 complex allows rational design of small peptide antagonists” (Communications Biology, 2021)

Tests used:
[1] = tested on: CXCR4 D262A; assay: 12G5 antibody competition, 293T cells transfected with CXCR4 D262A; type: binding, human; details: IC50 on CXCR4 D262A relative to wt
Description: (§1) Fig. 4 The interactions of EPI-X4 and the EPI-X4 derivatives WSC02 and JM#21 with point-mutated CXCR4 were assessed by an antibody competition assay. Amino acid substitutions were introduced in the sequence of CXCR4 by site-directed mutagenesis, cloned into an IRES-eGFP expression vector, and transfected into 293 T cells. Afterward, cells were incubated with serially diluted EPI-X4 (a, b), WSC02 (c, d), or JM#21 (e, f) in presence of a constant concentration of CXCR4 specific antibody (clone 12G5). After 2 h, bound antibody was analyzed by flow cytometry. a, c, e) Representative dose-dependent replacement of 12G5 antibody by peptides. b, d, f) IC50 values were calculated by nonlinear regression. Shown are data derived from at least three individual experiments ± SEM. IC50 values were set to 1000 µM (EPI-X4 and WSC02) or 100 µM (JM#21) if the value exceeds the maximally used concentration. *p ≤ 0.05, ***p ≤ 0.001 (one-way ANOVA for comparison with wt). For IC50 values see Table 1. For all binding curves see also Fig. S8.
(§2) Mutated CXCR4 constructs were transfected into 293 T cells that have a very low endogenous expression level of wild-type CXCR4. Transfected cells were then analyzed for CXCR4 surface expression (Fig. S5a) and EPI-X4 binding using a flow cytometry-based antibody competition assay (Fig. S5b, c)[33]. […]

[2] = tested on: CXCR4 D97E + V112A; assay: 12G5 antibody competition, 293T cells transfected with CXCR4 D97E + V112A; type: binding, human; details: IC50 on CXCR4 D97E + V112A relative to wt
Description: as §1, §2

[3] = target: T1, CXCR4 V112A + L41A (human, UniProt P61073-1 1-352, L41A | V112A); assay: flow cytometry on cells; 12G5 antibody competition on 293T cells transiently transfected with CXCR4 wt or mutants (IRES-eGFP vector), eGFP-positive cells gated; serially diluted peptide with a constant concentration of CXCR4 antibody clone 12G5, 2 h; bound antibody read; IC50 by nonlinear regression; details: one partner purified
T1 construct: human CXCR4, isoform 1 or b; also called L41A plus V112A; source: 293T cells, transiently transfected (pcDNA3.1 CXCR4-IRES-eGFP), on cells
T1 sequence (P61073 whole entry L41A/V112A, canonical isoform): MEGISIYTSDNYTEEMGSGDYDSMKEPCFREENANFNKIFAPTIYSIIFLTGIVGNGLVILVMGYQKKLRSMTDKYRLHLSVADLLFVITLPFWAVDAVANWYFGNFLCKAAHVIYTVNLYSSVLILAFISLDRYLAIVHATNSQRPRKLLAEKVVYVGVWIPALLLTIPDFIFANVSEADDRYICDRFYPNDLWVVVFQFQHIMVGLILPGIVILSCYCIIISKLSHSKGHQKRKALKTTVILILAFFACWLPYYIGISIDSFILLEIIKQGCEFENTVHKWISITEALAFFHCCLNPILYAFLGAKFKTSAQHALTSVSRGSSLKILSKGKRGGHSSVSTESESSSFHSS

[4] = target: T2, CXCR4 D97E (human, UniProt P61073-1 1-352, D97E); assay: as above; details: one partner purified
T2 construct: human CXCR4, isoform 1 or b; source: 293T cells, transiently transfected (pcDNA3.1 CXCR4-IRES-eGFP), on cells
T2 sequence (P61073 whole entry D97E, canonical isoform): as the sequence (P61073 whole entry L41A/V112A, canonical isoform) above, with A41L, D97E, A112V counted along it

IVRWSKKVPCVS [WSC02, first-generation C-terminally truncated 12-mer derivative of EPI-X4 with four substitutions]
Fold change [1]: 0.4 | Fold change [2]: 1.5

B1: EPI-X4 (Alb408-423) (peptide)
peptide: LVRYTKKVPQVSTPTL
notes: source: synthetic peptide (Fmoc solid-phase synthesis, HPLC-purified)
IC50 [3]: 78 µM | IC50 [4]: 129 µM
